{
  "source": "patent US9918983B2",
  "about": "“Suicidal LSD1 inhibitors targeting SOX2-expressing cancer cells” (THE BOARD OF REGENTS OF THE NEVADA SYSTEM OF HIGHER …, priority 2013, dated 2018)",
  "key": {"HDAC1-protein A complex": {"biological_target": "T1, HDAC1-protein A complex (Mus musculus, UniProt O09106)", "T1 construct": "1 μg immunoprecipitated endogenous HDAC1-protein A complexes; endogenous in cells; host or cells: F9 mouse teratocarcinoma cells, anti-HDAC1 immunoprecipitate on protein A-Sepharose", "T1 sequence (O09106 whole entry, other chains not shown)": "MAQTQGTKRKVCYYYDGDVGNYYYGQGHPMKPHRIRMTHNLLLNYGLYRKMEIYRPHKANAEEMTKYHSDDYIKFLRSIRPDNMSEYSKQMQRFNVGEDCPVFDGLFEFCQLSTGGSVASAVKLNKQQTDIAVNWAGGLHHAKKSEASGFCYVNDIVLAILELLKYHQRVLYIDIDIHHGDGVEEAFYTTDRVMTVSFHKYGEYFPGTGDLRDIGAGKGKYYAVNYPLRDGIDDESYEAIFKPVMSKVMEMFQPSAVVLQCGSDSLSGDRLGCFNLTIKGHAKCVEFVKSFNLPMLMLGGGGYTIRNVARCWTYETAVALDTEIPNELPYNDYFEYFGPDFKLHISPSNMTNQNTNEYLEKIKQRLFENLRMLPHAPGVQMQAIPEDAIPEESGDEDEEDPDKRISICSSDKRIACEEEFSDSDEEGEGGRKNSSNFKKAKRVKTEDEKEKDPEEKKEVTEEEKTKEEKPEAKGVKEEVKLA", "T1 sequence (Q8CFE3 whole entry partner, other chains not shown)": "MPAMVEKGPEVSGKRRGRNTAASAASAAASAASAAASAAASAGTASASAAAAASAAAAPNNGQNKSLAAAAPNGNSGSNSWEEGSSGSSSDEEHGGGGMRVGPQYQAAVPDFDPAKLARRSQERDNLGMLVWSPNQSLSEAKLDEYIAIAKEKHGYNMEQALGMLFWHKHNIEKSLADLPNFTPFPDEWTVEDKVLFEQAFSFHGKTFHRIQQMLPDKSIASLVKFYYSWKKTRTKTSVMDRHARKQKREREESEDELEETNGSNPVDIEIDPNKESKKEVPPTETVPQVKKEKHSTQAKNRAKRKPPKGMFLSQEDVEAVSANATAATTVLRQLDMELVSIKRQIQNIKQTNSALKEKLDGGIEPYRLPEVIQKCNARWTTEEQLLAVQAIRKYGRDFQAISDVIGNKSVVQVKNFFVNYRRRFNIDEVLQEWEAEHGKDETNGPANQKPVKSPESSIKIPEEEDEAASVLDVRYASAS", "assay": "In vitro deacetylation assay, immunoaffinity-purified HDAC1-protein A complex from F9 cells", "assay_type": "biochemical", "conditions": "H4K16ac peptide; 50 μM CBB1007 or 2 μM MS-275", "quoted_text": "The immunocomplexes were captured by protein A-Sepharose. Isolated LSD1-protein A or HDAC1-protein A complexes were verified by Western blotting with LSD1 and HDAC1 antibodies.\nThe percentages of deacetylated products were analyzed by mass spectrometry, and the data were analyzed by GraphPad Prism (version 5) software."}, "[1]": {"test_system": "histone H3 and H4 methylation and acetylation", "assay": "Histone modifications in F9 cells (Western blotting)", "assay_type": "cell-based, mouse", "protocol": "To quantify and compare the protein band densities in the Western blots shown in the figures, a titration by serial dilution of the siRNA protein samples for mES cell lysates was used as a reference. The concentration of titration samples was measured by use of a NanoDrop 2000 apparatus, and the protein concentration of all titration samples was adjusted to 1 μg/μL. The protein samples were loaded onto an SDS-polyacrylamide gel at levels ranging from 1 μg to 13 μg at 2-μg intervals and immune blotted with each antibody, including anti-LSD1, anti-HDAC1, and anti-histone H3 antibodies, with three independent loadings. The Western blots were developed with exposure times ranging from 30 s to 1 min. The exposure density of each band was scanned by Adobe Photoshop Elements (version 4.0) software using a CanonScan 8600F scanner (Canon, Calif.) and was subsequently quantified by use of the area density tool of Gel-Pro Analyzer (version 4.0) software (Media Cybernetics, Inc.) and plotted. The regression analysis of each signal was performed by use of the Microsoft Excel program's Analysis Tool Pak regression option. […] The amount of the protein band in the Western blot shown in the figures was quantified by scanning, as described for the reference titration. […] The quantity of protein band densities between two protein samples was externally corrected by use of the reference plots. […] The statistical differences between the experimental and control groups were analyzed by one-way analysis of variance (ANOVA). […]\nReferring to FIG. 28D, time course analyses of the effects of 50 μM LSD1 inhibitor CBB1007 on histone modifications in F9 cells are shown, but with a shorter time course than above. The mean density of each band was quantified by the use of Gel-Pro Analyzer (version 4.0) software, and error bars represent SEMs for duplicate samples. […] The statistical differences were analyzed by one-way ANOVA. *, P_0.05; **, P_0.01. […]"}, "Sox2": {"test_system": "Sox2", "assay": "Sox2 protein level by western blotting in carcinoma cells", "assay_type": "cell-based, human", "parameters": "dose or concentration left out as unconfirmed", "conditions": "indicated carcinoma cells, 30 hr", "text": "Log-phase growing cancer cells were directly lysed in a buffer containing 0.5% SDS. Proteins in the lysates were equalized and analyzed by Western blotting using antibodies against Sox2, LSD1, H3K4Me1, H3K4Me2, Oct4, and other proteins as described previously or in the figure descriptions (Wang, J., et al. (2011) Cancer Research 71, 7238-7249). For immunohistochemical staining, rabbit monoclonal anti-LSD1 (clone C69G12, cat. #2184) and anti-Sox2 (clone D6D9, cat. #3579) antibodies were obtained from Cell Signaling. Rabbit anti-Sox2 polyclonal antibodies were raised using the purified GST-Sox2 fusion protein as the antigen.\nReferring to FIG. 11A, inactivation of LSD1 by LSD1 inhibitors or siRNAs caused the downregulation of Sox2. The indicated carcinoma cells were treated with […] of the LSD1 inhibitors CBB1007 and CBB1003 for 30 hr or with 50 nM of Luc or LSD1 siRNAs for 60 hr. The protein levels of LSD1, Sox2, Lin28, CUL1, and histone H3 were analyzed by western blotting."}, "NCI-H520 cells": {"test_system": "NCI-H520 cells", "assay": "Cell growth/viability (MTT, microscopy)", "assay_type": "cell-based, human", "conditions": "24-30 hr (50 μM, 30 hr in FIG. 5B)", "protocol": "(§1) Lung, breast, ovarian, and other carcinoma cells were either obtained from American Type Culture Collection (ATCC) or from the DTP and DCTD Tumor Repository of National Cancer Institute (the NCI-60 cancer cell line panel), operated by Charles River Laboratory, Inc., as listed in Table 1. They were cultured according to instructions and treated with various concentrations of LSD1 inhibitors for 30-36 hours for mRNA analysis by quantitative real time RT-PCR or for 30-48 hours for protein analysis and the cell viability assays using Western blotting or microscopy and MTT assays as described previously (Wang, J., et al. (2011) Cancer Research 71, 7238-7249).\n(§2) Alternatively, cell viability assays were conducted as previously described (Wang, J., et al. (2011) Cancer Research 71, 7238-7249). For the MTT assay, cells were seeded onto 96-well culture plates with a density of 2000-5000 cells/well, and incubated with CBB1003 or CBB1007 at various concentrations from 1 to 100 μM for 30-48 hours, depending cell growth rate. Dimethylsulfoxide (DMSO) was used as a solvent control. MTT was added to a final concentration of 0.5 mg/mL and cells were re-incubated for 4 hours. After removing the medium, 200 μL DMSO was added to dissolve formazan, followed by incubation for 10 minutes, and absorbance was measured at 490 nm by a Bio Red microplate reader. All assays were performed in triplicates for each concentration. The cell viability rate was calculated as the relative percentage of MTT absorption as follows: % cell viability=(mean experimental absorbance/mean control absorbance)×100. […]\n(§3) Referring to FIG. 5C, the percent viability of cells treated with LSD1 inhibitors or siRNAs compared with control cells, as determined by 3-(4,5-dimethylthiazol-2-yl)-2,5-diphenyltetrazolium bromide (MTT) assay is shown. […] The statistical differences between inhibitor-treated and control groups were analyzed by one-way ANOVA (scale bar=[…]; **p<0.01)."}, "NCI-H1437 cells": {"test_system": "NCI-H1437 cells", "assay": "Cell growth/viability (MTT, microscopy)", "assay_type": "cell-based, human", "conditions": "24-30 hr (50 μM, 30 hr in FIG. 5B)", "protocol": "as §1, §2, §3"}},
  "data": [
    {"compound": "COC(=O)c1cc(CN2CCN(C(=N)N)CC2)cc(C(=O)N2CCN(C(=O)c3ccc(C(=N)N)cc3)CC2)c1", "note": "[CBB1007]", "values": [
      {"measurement": "deacetylase activity of immunoaffinity-purified HDAC1 (HDAC1-protein A)", "setting": "HDAC1-protein A complex", "result": "sufficient to inhibit the deacetylase activity"},
      {"measurement": "H3K4 methylation of oligonucleosomes from treated cells", "setting": "[1]", "result": "hypermethylated on H3K4"},
      {"measurement": "time to increases of acetylation at H4K16 and H3K56 and mono- and dimethylation at H3K4", "setting": "[1]; 50 μM", "result": "≤ 20", "unit": "min"},
      {"measurement": "Sox2 protein level", "setting": "Sox2", "result": "downregulation"},
      {"measurement": "cell growth", "setting": "NCI-H520 cells", "result": "selectively and specifically inhibit the growth"},
      {"measurement": "cell growth", "setting": "NCI-H1437 cells", "result": "no detectable effects"}
    ]}
  ]
}
